Structures are written as SMILES.

As a reminder, the IC50 is the midpoint of a concentration-inhibition curve.

T1 sequence (P14902 whole entry P110S/E119G): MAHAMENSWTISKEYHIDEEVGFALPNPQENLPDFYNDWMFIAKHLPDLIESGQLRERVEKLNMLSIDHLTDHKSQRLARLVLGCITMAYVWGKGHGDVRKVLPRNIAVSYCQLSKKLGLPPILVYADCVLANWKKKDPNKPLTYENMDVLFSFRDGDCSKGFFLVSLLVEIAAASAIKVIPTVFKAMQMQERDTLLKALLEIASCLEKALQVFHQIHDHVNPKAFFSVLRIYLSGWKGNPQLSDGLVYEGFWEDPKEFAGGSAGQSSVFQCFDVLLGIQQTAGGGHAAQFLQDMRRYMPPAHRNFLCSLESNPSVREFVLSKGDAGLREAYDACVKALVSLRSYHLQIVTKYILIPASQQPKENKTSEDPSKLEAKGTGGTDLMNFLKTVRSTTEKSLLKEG

The experiment concerns the target T1, purified human IDO protein (Homo sapiens, UniProt P14902).
T1 construct: 2 extra amino acids (linker from the BglII cloning site of pQE70); made in house; host or cells: E. coli M15(pREP4) with plasmid pQE70-hIDO
Nature of the experiment: Enzymatic IDO assay (kynurenine production, absorbance at 480 nm). It counts as biochemical. As to conditions: recombinant human IDO; values reported in ranges; read-out: hIDO IC50. The protocol: The inhibitors were initially diluted in DMSO at 100 mM and were diluted in potassium phosphate 50 mM, added to the reaction mixture at final concentrations raging from 1 mM to 5 nM and preincubated with the enzyme for 5 min at 25° C. The reaction was started by addition of L-tryptophan to 200 μM and incubated 15 min at 37° C. The reaction was stopped by addition of 0.5 vol of 30% trichloroacetic acid and incubated 30 min at 60° C. to hydrolyze N-formylkynurenine to kynurenine. The reaction was centrifuged at 3400 g for 5 min to remove precipitated protein and the supernatant was reacted with 2% (w/v) of p-dimethylaminobenzaldehyde in acetic acid. The reaction was incubated 10 min at 25° C. and read at 480 nm in a spectrophotometer. […] Nonlinear regressions and determination of the IC50 values were performed using the GraphPad Prism 4 software.
On to `N[C@@H]1CCCC[C@H]1NC(=O)Nc1ccc(CCOc2ccccc2-c2c[nH]cn2)c(Cl)c1` (racemic) [compound 1361, 1-(4-(2-(2-(1H-imidazol-4-yl)phenoxy)ethyl)-3-chlorophenyl)-3-(±(1R,2R)-2-aminocyclohexyl)urea], for which the IC50 was less than 1 µM. Take `N[C@H]1CCCC[C@H]1NC(=O)Nc1ccc(CCOc2ccccc2-c2c[nH]cn2)c(Cl)c1` (racemic) [compound 1368, 1-(4-(2-(2-(1H-imidazol-4-yl)phenoxy)ethyl)-3-chlorophenyl)-3-(±(1R,2S)-2-aminocyclohexyl)urea]: the IC50 is less than 1 µM. In the case of `O=C(O)c1ccccc1-c1c[nH]cn1` [compound 926, 2-(1H-imidazol-4-yl)benzoic acid], the half-inhibitory concentration (IC50) is more than 100 µM. In the case of `COC(=O)c1ccccc1CCOc1ccccc1-c1c[nH]cn1` [compound 934, methyl 2-(2-(2-(1H-imidazol-4-yl)phenoxy)ethyl) benzoate], the IC50 was more than 100 µM.

Take `COc1ccccc1-c1cnco1` [compound 945, 5-(2-methoxyphenyl)oxazole]: the IC50 is more than 100 µM.

For `O=C(NCc1cccc(Cl)c1)C1CCC(=CCOc2ccccc2-c2c[nH]cn2)CC1` (stereo not shown) [compound 947, 4-(2-(2-(1H-imidazol-4-yl)phenoxy)ethylidene)-N-(3-chlorobenzyl)cyclohexanecarbox-amide], the half-inhibitory concentration (IC50) fell in the range of 10 to 100 µM.

As for `c1cc(-c2c[nH]cn2)c2[nH]ccc2c1` [compound 948, 7-(1H-imidazol-4-yl)-1H-indole], the IC50 fell in the range of 10 to 100 µM.

Take `c1nc(-c2ccc3[nH]ccc3c2)c[nH]1` [compound 949, 5-(1H-imidazol-4-yl)-1H-indole]: the concentration for half-maximal inhibition (IC50) was more than 100 µM.

In the case of `c1cnc2c(-c3c[nH]cn3)cccc2c1` [compound 952, 8-(1H-imidazol-4-yl)quinoline], the IC50 is more than 100 µM. Take `O=C(COc1ccccc1-c1c[nH]cn1)c1cccc(Br)c1` [compound 953, 2-(2-(1H-imidazol-4-yl)phenoxy)-1-(3-bromo-phenyl)ethanone]: the IC50 lay in the range of 10 to 100 µM. Regarding `OC(COc1ccccc1-c1c[nH]cn1)c1cccc(Br)c1` (stereo not shown) [compound 954, 2-(2-(1H-imidazol-4-yl)phenoxy)-1-(3-bromo-phenyl)ethanol], the IC50 is 10 to 100 µM. Regarding `c1nc(-c2ccc3c(c2)OCO3)c[nH]1` [compound 955, 4-(benzo[d][1,3]dioxol-5-yl)-1H-imidazole], the IC50 was more than 100 µM. Consider `Oc1c(-c2c[nH]cn2)cc(Cl)c2cccnc12` [compound 956, 5-chloro-7-(1H-imidazol-4-yl)quinolin-8-ol], for which the 50% inhibitory concentration (IC50) was more than 100 µM. In the case of `c1ccc2c(-c3cnc[nH]3)cccc2c1` [compound 957, 5-(naphthalen-1-yl)-1H-imidazole], the IC50 lay within 10 to 100 µM. As to `CC(=O)NCc1cccc(COc2ccccc2-c2c[nH]cn2)c1` [compound 958, N-(3-((2-(1H-imidazol-4-yl)phenoxy)methyl)benzyl)acetamide], the half-inhibitory concentration (IC50) lay within 10 to 100 µM. On to `CC(=O)N(Cc1ccccc1)Cc1cccc(COc2ccccc2-c2c[nH]cn2)c1` [compound 959, N-(3-((2-(1H-imidazol-4-yl)phenoxy)methyl)benzyl)-N-benzylacetamide], for which the 50% inhibitory concentration (IC50) was 10 to 100 µM. As for `c1nc(-c2ccc3cc[nH]c3c2)c[nH]1` [compound 961, 6-(1H-imidazol-4-yl)-1H-indole], the IC50 was in the range of 10 to 100 µM. Consider `c1cc(-c2c[nH]cn2)c2nsnc2c1` [compound 962, 4-(1H-imidazol-4-yl)benzo[c][1,2,5]thiadiazole], for which the half-maximal inhibitory concentration (IC50) fell in the range of 10 to 100 µM. For `c1cnc2[nH]cc(-c3c[nH]cn3)c2c1` [compound 964, 3-(1H-imidazol-4-yl)-1H-pyrrolo[2,3-b]pyridine], the 50% inhibitory concentration (IC50) is more than 100 µM. For `CC(C)(C)C(=O)Oc1ccc(Br)cc1-c1c[nH]cn1` [compound 967, 4-bromo-2-(1H-imidazol-4-yl)phenyl pivalate], the IC50 was 1 to 10 µM.

In the case of `Clc1ccc2c(-c3c[nH]cn3)ccnc2c1` [compound 969, 7-chloro-4-(1H-imidazol-4-yl)quinoline], the IC50 is more than 100 µM. `c1nc(-c2ccc3c(c2)OCCO3)c[nH]1` [compound 971, 4-(2,3-dihydrobenzo[b][1,4]dioxin-6-yl)-1H-imidazole]: the concentration for half-maximal inhibition (IC50) was more than 100 µM. Consider `c1cnc(-c2c[nH]cn2)nc1` [compound 972, 2-(1H-imidazol-4-yl)pyrimidine], for which the half-inhibitory concentration (IC50) was more than 100 µM. As for `c1ccc2[nH]c(-c3c[nH]cn3)cc2c1` [compound 975, 2-(1H-imidazol-4-yl)-1H-indole], the half-maximal inhibitory concentration (IC50) lay within 10 to 100 µM. The same measure for `CCC(O)(COc1ccccc1-c1c[nH]cn1)c1cccs1` (stereo not shown) [compound 976, 1-(2-(1H-imidazol-4-yl)phenoxy)-2-(thiophen-2-yl)butan-2-ol]: 10 to 100 µM; for `CC(O)(COc1ccccc1-c1c[nH]cn1)c1cccs1` (stereo not shown) [compound 977, 1-(2-(1H-imidazol-4-yl)phenoxy)-2-(thiophen-2-yl)propan-2-ol]: 10 to 100 µM. With `CC(COc1ccccc1-c1c[nH]cn1)c1ccccc1` (stereo not shown) [compound 978, 4-(2-(2-phenylpropoxy)phenyl)-1H-imidazole] the figure was 10 to 100 µM; with `O=C(O)c1ccccc1C(=O)COc1ccccc1-c1c[nH]cn1` [compound 979, 2-(2-(2-(1H-imidazol-4-yl)phenoxy)acetyl) benzoic acid], more than 100 µM; with `c1cc(-c2c[nH]cn2)ccn1` [compound 982, 4-(1H-imidazol-4-yl)pyridine], more than 100 µM. The same measure for `c1ccc(OCc2cccc(-c3c[nH]cn3)c2)cc1` [compound 996, 4-(3-(phenoxymethyl)phenyl)-1H-imidazole]: 10 to 100 µM. For the molecule `Clc1ccc(COc2ccccc2-c2c[nH]cn2)cc1Cl` [compound 1003, 4-(2-(3,4-dichlorobenzyloxy)phenyl)-1H-imidazole], the IC50 lay in the range of 1 to 10 µM. As for `c1ccc2c(-c3c[nH]cn3)cncc2c1` [compound 1004, 4-(1H-imidazol-4-yl)isoquinoline], the IC50 was more than 100 µM.

Regarding `Oc1ccc(-c2ccccc2)cc1-c1c[nH]cn1` [compound 1005, 3-(1H-imidazol-4-yl)biphenyl-4-ol], the IC50 lay in the range of 10 to 100 µM. As to `OC(c1ccccc1)c1c[nH]cn1` (stereo not shown) [compound 1006, (1H-imidazol-4-yl)(phenyl)methanol], the IC50 is more than 100 µM. In the case of `c1ccc2c(-c3c[nH]cn3)ccnc2c1` [compound 1007, 4-(1H-imidazol-4-yl)quinoline], the concentration for half-maximal inhibition (IC50) is more than 100 µM. Turning to `COc1cccc(-c2c[nH]cn2)n1` [compound 1009, 2-(1H-imidazol-4-yl)-6-methoxypyridine], the half-inhibitory concentration (IC50) was more than 100 µM.

Regarding `Oc1cccc(OCCCc2ccccc2)c1-c1cnc[nH]1` [compound 1010, 2-(1H-imidazol-5-yl)-3-(3-phenylpropoxy) phenol], the concentration for half-maximal inhibition (IC50) is 10 to 100 µM. With `Oc1cccc(-c2c[nH]cn2)n1` [compound 1011, 6-(1H-imidazol-4-yl)pyridin-2-ol] the figure was more than 100 µM; with `COc1ncccc1-c1c[nH]cn1` [compound 1012, 3-(1H-imidazol-4-yl)-2-methoxypyridine], more than 100 µM; with `COc1cccc2c1-c1cncn1C2` [compound 1013, 9-methoxy-5H-imidazo[5,1-a]isoindole], 10 to 100 µM. As to `CCOC(=O)/C=C/c1ccccc1-c1c[nH]cn1` [compound 1014, (E)-ethyl 3-(2-(1H-imidazol-4-yl)phenyl)acrylate], the IC50 lay in the range of 10 to 100 µM. On to `Oc1ncccc1-c1c[nH]cn1` [compound 1015, 3-(1H-imidazol-4-yl)pyridin-2-ol], for which the half-inhibitory concentration (IC50) is more than 100 µM. Consider `Brc1ccc(OCCC2CCCCC2)c(-c2c[nH]cn2)c1` [compound 1016, 4-(5-bromo-2-(2-cyclohexylethoxy)phenyl)-1H-imidazole], for which the IC50 fell in the range of 10 to 100 µM. As to `O=C(COc1ccccc1-c1c[nH]cn1)c1ccc2ccsc2c1` [compound 1018, 2-(2-(1H-imidazol-4-yl)phenoxy)-1-(benzo[b]thiophen-6-yl)ethanone], the IC50 lay in the range of 1 to 10 µM. As to `Clc1ccccc1CCOc1ccc(Br)cc1-c1c[nH]cn1` [compound 1021, 4-(5-bromo-2-(2-chlorophenethoxy)phenyl)-1H-imidazole], the IC50 fell in the range of 10 to 100 µM. Turning to `Fc1ccc(COc2ccccc2-c2c[nH]cn2)cc1` [compound 1022, 4-(2-(4-fluorobenzyloxy)phenyl)-1H-imidazole], the IC50 fell in the range of 10 to 100 µM. As to `FC(F)(F)c1ccc(COc2ccccc2-c2c[nH]cn2)cc1` [compound 1023, 4-(2-(4-(trifluoromethyl)benzyloxy)phenyl)-1H-imidazole], the IC50 was more than 100 µM. In the case of `CC(Oc1ccccc1-c1c[nH]cn1)c1ccc(Cl)cc1` (stereo not shown) [compound 1024, 4-(2-(1-(4-chlorophenyl)ethoxy)phenyl)-1H-imidazole], the half-maximal inhibitory concentration (IC50) is 10 to 100 µM.

As for `c1ccc2oc(-c3c[nH]cn3)cc2c1` [compound 1026, 4-(benzofuran-2-yl)-1H-imidazole], the IC50 is more than 100 µM. Consider `c1ccc(-c2c[nH]cn2)c(OCc2ccc3c(c2)OCO3)c1` [compound 1027, 4-(2-(benzo[d][1,3]dioxol-5-ylmethoxy)phen-yl)-1H-imidazole], for which the IC50 is 10 to 100 µM.

On to `c1ccc(-c2c[nH]cn2)c(OCc2ccc3occc3c2)c1` [compound 1028, 4-(2-(benzofuran-5-ylmethoxy)phenyl)-1H-imidazole], for which the IC50 lay within 10 to 100 µM. As for `CCOC(=O)c1ccc(COc2ccccc2-c2c[nH]cn2)cc1` [compound 1029, ethyl 4-((2-(1H-imidazol-4-yl)phenoxy)methyl) benzoate], the 50% inhibitory concentration (IC50) is 10 to 100 µM.
